From patent US5607937A, “Piperazides of substituted phenylalanine derivatives as thrombin inhibitors” (priority 1993, dated 1997)

Key:
factor Xa = factor Xa (Bos taurus, UniProt P00743); assay: inhibition of factor Xa, dissociation constant Ki; assay type: biochemical; settings: Table 1
Description: (§1) The biological activity of the compounds of the present invention was determined in vitro as well as in vivo.

[1] = plasma concentration in rats after intravenous administration; assay type: in vivo; settings: rat
[2] = plasma concentration in rats after oral administration; assay type: in vivo; settings: rat
Description: A physiological NaCl solution of the substance to be tested was submitted to high pressure liquid chromatography (HPLC) in order to determine its characteristic substance-specific retention time with the chosen test conditions.
The substance to be tested was diluted in vitro in rat plasma. This solution was also submitted to HPLC to see whether the characteristic peak of the substance once again appeared at the substance-specific retention time.
Blood samples were taken at time intervals of 15 minutes, from which plasma samples were prepared by centrifugation; those samples were also submitted to HPLC to see whether the characteristic peak of the substance appeared again at the substance-specific retention time.
After administration, blood samples were taken from the test animals at time intervals from 2 to maximally 360 minutes and the blood level of the compounds to be tested was determined by HPLC.

[3] = plasma concentration in rats after rectal administration; assay type: in vivo; settings: rat
in vivo = settings: plasma, rat, intraduodenal 100 mg/kg
[4] = concentration in rat plasma in the anticoagulant study after rectal application; assay type: in vivo; settings: for concentration at 0.5 h / concentration at 1 h / concentration at 2 h / concentration at 3 h: plasma; for concentration at 0.5 h: 30 min; for concentration at 1 h: 60 min; for concentration at 2 h: 120 min; for concentration at 3 h: 180 min; for Concentration in plasma: 0 min
[5] = test system: stasis-induced venous thrombosis in the rat; assay: antithrombotic efficacy, stasis-induced venous thrombosis model (Wessler); assay type: in vivo; settings: for Thrombus scale 0 (vein segments): 0=liquid blood; for Thrombus scale 1 (vein segments): 1=one or several small thrombi; for Thrombus scale 2 (vein segments): 2=not fully closed vascular segment; for Thrombus scale 3 (vein segments): 3=fully closed vascular segment
Description: (§2) The antithrombotic activity of the compounds was determined in the rat on the model of the stasis-induced thrombosis according to Wessler et al. (J. Appl. Physiol. 14, 943-946, 1959). The thrombus was induced by serum 30 min after application of the inhibitor and macroscopically evaluated after 10 further min.
(§3) After rectal application, the compounds of the present invention are absorbed to an extent leading to antithrombotically active plasma levels. This has been shown with the model of the stasis-induced venous thrombosis in the rat according to Wessler et al. This method consisted in macroscopically evaluating thrombi induced by serum in jugular vein segments by means of a scale (0=liquid blood, 1=one or several small thrombi, 2=not fully closed vascular segment, 3=fully closed vascular segment). The antithrombotic effect is clearly dose-dependent.
The relative thrombus scale is the quotient of the mean thrombus size of the treated group (e.g. the mean value at 5 mg/kg is 1.2) and the mean thrombus size of the control group (2.9).

[6] = plasma level in the stasis-induced thrombosis study, rectal application; assay type: in vivo; settings: rat; for concentration at 0.5 h: 30 min; for concentration at 1 h: 60 min
Description: as §2, §3

thrombin = thrombin (Bos taurus, UniProt P00735)
[7] = test system: coagulation in human plasma; assay: thrombin time (TT) in human plasma
tPA = tPA (Homo sapiens, UniProt P00750); assay: inhibition of tPA, dissociation constant Ki
[8] = test system: coagulation in human plasma; assay: prothrombin time (PT, Quick value) in human plasma
factor XIIa = target: T1, factor XIIa (Homo sapiens, UniProt P00748); assay: inhibition of factor XIIa, dissociation constant Ki
T1 sequence (P00748 373-615 limits assumed): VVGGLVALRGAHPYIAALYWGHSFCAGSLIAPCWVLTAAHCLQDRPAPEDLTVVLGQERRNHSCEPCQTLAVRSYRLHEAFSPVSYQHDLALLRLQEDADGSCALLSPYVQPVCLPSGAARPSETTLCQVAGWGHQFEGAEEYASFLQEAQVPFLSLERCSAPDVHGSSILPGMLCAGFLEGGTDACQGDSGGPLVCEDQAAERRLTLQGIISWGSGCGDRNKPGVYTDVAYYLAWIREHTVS

plasma kallikrein = plasma kallikrein (Homo sapiens, UniProt P03952); assay: inhibition of plasma kallikrein, dissociation constant Ki
glandular kallikrein = glandular kallikrein (Sus scrofa, UniProt P00752); assay: inhibition of glandular kallikrein, dissociation constant Ki
[9] = test system: coagulation in human plasma; assay: activated partial thromboplastin time (aPTT) in human plasma
trypsin = target: T2, trypsin (Bos taurus, UniProt P00760); assay: inhibition of trypsin, dissociation constant Ki; assay type: biochemical; parameters: thrombin and the related enzymes trypsin, plasmin, factor Xa, factor XIIa
T2 sequence (P00760 24-246): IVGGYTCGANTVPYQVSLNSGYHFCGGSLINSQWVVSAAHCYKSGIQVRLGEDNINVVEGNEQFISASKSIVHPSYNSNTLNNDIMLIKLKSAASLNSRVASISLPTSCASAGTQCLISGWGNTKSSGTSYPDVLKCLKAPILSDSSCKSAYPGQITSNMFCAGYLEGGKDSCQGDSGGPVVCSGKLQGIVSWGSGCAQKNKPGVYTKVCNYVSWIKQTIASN
Description: as §1

glandular kallikrein, sequence (P00752 8-246): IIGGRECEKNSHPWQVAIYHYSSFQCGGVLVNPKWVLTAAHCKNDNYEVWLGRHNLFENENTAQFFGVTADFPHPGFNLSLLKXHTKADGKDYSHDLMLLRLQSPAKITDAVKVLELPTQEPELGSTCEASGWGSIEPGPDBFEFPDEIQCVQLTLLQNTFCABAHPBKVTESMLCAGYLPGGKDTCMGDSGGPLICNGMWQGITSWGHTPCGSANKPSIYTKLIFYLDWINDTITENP
tPA, sequence (P00750 36-562): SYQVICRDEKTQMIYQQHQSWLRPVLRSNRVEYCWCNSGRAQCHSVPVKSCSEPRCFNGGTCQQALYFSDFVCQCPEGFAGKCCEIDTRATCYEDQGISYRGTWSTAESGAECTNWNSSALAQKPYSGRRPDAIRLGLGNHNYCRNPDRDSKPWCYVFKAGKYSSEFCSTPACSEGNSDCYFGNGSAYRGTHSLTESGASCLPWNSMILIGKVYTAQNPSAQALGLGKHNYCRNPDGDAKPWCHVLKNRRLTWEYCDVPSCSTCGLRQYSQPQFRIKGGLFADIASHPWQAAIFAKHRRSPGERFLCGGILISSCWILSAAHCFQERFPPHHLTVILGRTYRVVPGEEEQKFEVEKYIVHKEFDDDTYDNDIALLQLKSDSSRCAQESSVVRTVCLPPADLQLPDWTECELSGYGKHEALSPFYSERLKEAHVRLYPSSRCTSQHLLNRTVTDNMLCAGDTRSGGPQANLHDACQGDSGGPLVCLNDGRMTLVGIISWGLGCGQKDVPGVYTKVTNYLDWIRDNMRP
factor Xa, sequence (P00743 234-492 limits assumed): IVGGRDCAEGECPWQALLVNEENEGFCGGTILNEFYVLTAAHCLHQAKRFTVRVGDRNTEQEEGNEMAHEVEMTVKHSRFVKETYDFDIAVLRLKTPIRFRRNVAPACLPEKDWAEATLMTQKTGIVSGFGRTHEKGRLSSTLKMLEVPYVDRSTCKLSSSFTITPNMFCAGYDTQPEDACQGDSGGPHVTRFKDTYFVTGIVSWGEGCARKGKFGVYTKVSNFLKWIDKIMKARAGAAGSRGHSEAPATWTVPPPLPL
factor Xa, sequence (P00743 41-180 partner limits assumed): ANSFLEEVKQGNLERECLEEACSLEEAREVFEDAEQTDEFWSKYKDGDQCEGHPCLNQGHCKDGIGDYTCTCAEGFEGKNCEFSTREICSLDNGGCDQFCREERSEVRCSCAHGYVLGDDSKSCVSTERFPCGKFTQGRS
plasma kallikrein, sequence (P03952 391-638 limits assumed, species assumed): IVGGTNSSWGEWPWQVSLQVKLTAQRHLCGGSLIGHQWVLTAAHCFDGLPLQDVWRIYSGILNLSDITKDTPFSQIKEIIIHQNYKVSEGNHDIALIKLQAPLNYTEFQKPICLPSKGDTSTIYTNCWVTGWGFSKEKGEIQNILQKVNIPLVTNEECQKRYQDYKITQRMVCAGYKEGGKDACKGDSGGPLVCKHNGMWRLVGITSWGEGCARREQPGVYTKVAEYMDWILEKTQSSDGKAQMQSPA
plasma kallikrein, sequence (P03952 20-390 partner limits assumed, species assumed): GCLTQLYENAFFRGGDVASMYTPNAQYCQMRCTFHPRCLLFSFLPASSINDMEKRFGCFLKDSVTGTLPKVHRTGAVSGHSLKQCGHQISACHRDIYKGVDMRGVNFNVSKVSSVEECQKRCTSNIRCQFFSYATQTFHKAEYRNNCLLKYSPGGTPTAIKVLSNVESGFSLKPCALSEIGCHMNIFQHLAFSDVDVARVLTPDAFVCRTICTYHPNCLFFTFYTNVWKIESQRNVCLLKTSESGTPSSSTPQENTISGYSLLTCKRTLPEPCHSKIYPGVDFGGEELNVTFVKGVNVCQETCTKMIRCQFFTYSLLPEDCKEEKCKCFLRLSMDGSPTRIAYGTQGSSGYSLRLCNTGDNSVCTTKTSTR

In the case of `CC(=O)N1CCN(C(=O)[C@H](Cc2cccc(C(=N)N)c2)NS(=O)(=O)c2ccc3ccccc3c2)CC1.Cl` [Compound 2, Nα-(2-naphthylsulfonyl)-(L)-3-amidinophenylalanine-4-acetylpiperazide hydrochloride], the Ki (factor Xa) is reported as 35 µM, the concentration at 5 min ([1]; plasma, iv, i.v. 1 mg/kg, 5 min) is reported as 780 ng/mL and the concentration at 0.25 h ([1]; plasma, iv, i.v. 1 mg/kg, 15 min) is reported as 224 ng/mL. The concentration at 0.5 h ([1]; plasma, iv, i.v. 1 mg/kg, 30 min) was 95 ng/mL, the concentration at 1 h ([1]; plasma, iv, i.v. 1 mg/kg, 60 min) was 38 ng/mL and the concentration at 2 h ([1]; plasma, iv, i.v. 1 mg/kg, 120 min) was 12 ng/mL. For the same compound, the concentration at 3 h ([1]; plasma, iv, i.v. 1 mg/kg, 180 min) was 10 ng/mL, the elimination in words ([1]; i.v.) was “eliminated at comparable rate” and the concentration at 0.5 h ([2]; plasma, oral 50 mg/kg, 30 min) was 1200 ng/mL. For the same compound, the concentration at 1 h ([2]; plasma, oral 50 mg/kg, 60 min) was 873 ng/mL, the concentration at 2 h ([2]; plasma, oral 50 mg/kg, 120 min) was 333 ng/mL and the concentration at 3 h ([2]; plasma, oral 50 mg/kg, 180 min) was 124 ng/mL. The concentration at 4 h ([2]; plasma, oral 50 mg/kg, 240 min) was 44 ng/mL, the concentration at 5 h ([2]; plasma, oral 50 mg/kg, 300 min) was 46 ng/mL and the resorption in words ([2]; oral) was “only slightly resorbed”. It also gave a concentration at 0.5 h ([3]; plasma, rectal 100 mg/kg, 30 min) of 32400 ng/mL, a concentration at 1 h ([3]; plasma, rectal 100 mg/kg, 60 min) of 23100 ng/mL and a concentration at 2 h ([3]; plasma, rectal 100 mg/kg, 120 min) of 5300 ng/mL. The concentration at 3 h ([3]; plasma, rectal 100 mg/kg, 180 min) was 2700 ng/mL, the concentration at 4 h ([3]; plasma, rectal 100 mg/kg, 240 min) was 1260 ng/mL and the concentration at 5 h ([3]; plasma, rectal 100 mg/kg, 300 min) was 810 ng/mL. For the same compound, the concentration at 6 h ([3]; plasma, rectal 100 mg/kg, 360 min) was 508 ng/mL, the “detectable in plasma after rectal administration” value ([3]; rectal) was at least 6 h and the “detection/blood levels in words” value ([3]; rectal) was “absorbed by the intestine in particular after rectal administration to rats”. The concentration at 0.5 h (in vivo; 30 min) was 21700 ng/mL, the concentration at 1 h (in vivo; 60 min) was 15200 ng/mL and the concentration at 2 h (in vivo; 120 min) was 4280 ng/mL. For the same compound, the concentration at 3 h (in vivo; 180 min) was 2600 ng/mL, the concentration at 4 h (in vivo; 240 min) was 2180 ng/mL and the concentration at 5 h (in vivo; 300 min) was 2200 ng/mL. For the same compound, the concentration at 6 h (in vivo; 360 min) was 2850 ng/mL, the concentration at 0.5 h ([4]; rectal 5 mg/kg) was 296 ng/mL and the concentration at 1 h ([4]; rectal 5 mg/kg) was 160 ng/mL. It also gave a concentration at 2 h ([4]; rectal 5 mg/kg) of 60 ng/mL, a concentration at 3 h ([4]; rectal 5 mg/kg) of 40 ng/mL and a concentration at 0.5 h ([4]; rectal 20 mg/kg) of 5440 ng/mL. For the same compound, the concentration at 1 h ([4]; rectal 20 mg/kg) was 2090 ng/mL, the concentration at 2 h ([4]; rectal 20 mg/kg) was 812 ng/mL and the concentration at 3 h ([4]; rectal 20 mg/kg) was 660 ng/mL. For the same compound, the Concentration in plasma ([4]; rectal 5 mg/kg) was 0 ng/mL, the Concentration in plasma ([4]; rectal 20 mg/kg) was 0 ng/mL and the “Thrombus scale 0 (vein segments)” value ([5]; rectal 5 mg/kg) was 0. For the same compound, the “Thrombus scale 1 (vein segments)” value ([5]; rectal 5 mg/kg) was 8, the “Thrombus scale 2 (vein segments)” value ([5]; rectal 5 mg/kg) was 2 and the “Thrombus scale 3 (vein segments)” value ([5]; rectal 5 mg/kg) was 0. For the same compound, the “mean thrombus size of the treated group” value ([5]; rectal 5 mg/kg, scale 0-3, control 2.9) was 1.2, the “Thrombus scale 0 (vein segments)” value ([5]; rectal 20 mg/kg) was 6 and the “Thrombus scale 1 (vein segments)” value ([5]; rectal 20 mg/kg) was 1. For the same compound, the “Thrombus scale 2 (vein segments)” value ([5]; rectal 20 mg/kg) was 0, the “Thrombus scale 3 (vein segments)” value ([5]; rectal 20 mg/kg) was 0 and the “Thrombus scale 0 (vein segments)” value ([5]; rectal 100 mg/kg) was 6. The “Thrombus scale 1 (vein segments)” value ([5]; rectal 100 mg/kg) was 0, the “Thrombus scale 2 (vein segments)” value ([5]; rectal 100 mg/kg) was 0 and the “Thrombus scale 3 (vein segments)” value ([5]; rectal 100 mg/kg) was 0. It also gave a concentration at 0.5 h ([6]; rectal 5 mg/kg) of 228 ng/mL, a concentration at 1 h ([6]; rectal 5 mg/kg) of 160 ng/mL and a concentration at 0.5 h ([6]; rectal 20 mg/kg) of 1620 ng/mL. It also gave a concentration at 1 h ([6]; rectal 20 mg/kg) of 998 ng/mL, a concentration at 0.5 h ([6]; rectal 100 mg/kg) of 28700 ng/mL and a concentration at 1 h ([6]; rectal 100 mg/kg) of 16100 ng/mL. The “thrombin inhibition in words” value (thrombin) was “potent thrombin inhibitor”, the “Concentr. to double the Thrombin time” value [7] was 0.055 µmol/L and the “concentration to double the TT” value [7] was “less than 10^-7 mol/1”. The Ki (tPA) was 440 µM, the “Concentr. to double the Prothrombin time” value [8] was 0.90 µmol/L and the “concentration to double the PT” value [8] was at most 1 μmol/1. For the same compound, the Ki (factor XIIa) was 150 µM, the Ki (plasma kallikrein) was 15 µM and the Ki (glandular kallikrein) was over 1000 µM. The “Concentr. to double the aPTT” value [9] was 0.36 µmol/L, the “concentration to double the aPTT” value [9] was at most 1 μmol/1 and the Ki (trypsin) was 0.044 µM.
